{"source": "patent US20230293537A1", "about": "“USE OF ACETAMIDE DERIVATIVE IN PREVENTION AND TREATMENT OF ALZHEIMER'S DISEASE” (ACADEMY OF MILITARY MEDICAL SCIENCES, priority 2020, published 2023)", "tested_on": "5×FAD transgenic mice", "test": "Morris water maze test of spatial learning and memory in 5×FAD transgenic mice", "format": "in vivo", "source_text": "Animals: 5×FAD transgenic mice, male, SPF grade, initial body weight of 25-35 g; provided by Zhang Cheng Laboratory of Peking University. Male 5×FAD transgenic mice produced by breeding 5×FAD transgenic mice with WT mice and their littermate WT mice were used for the experiments, weighing 27-35 g. The 5×FAD transgenic mice were used as acute AD mouse model, the mice could develop AD pathological features at two or three months old, and behavioral changes appeared at five months old. The mice were administered at four months old, and after continuous administration for two months, the spatial learning and memory abilities of the mice were tested by water maze.\n(1) Administration: 4-month-old mice were divided into four groups, namely WT (physiological saline), 5×FAD (physiological saline), 5×FAD (YL-IPA08, 0.3 mg/kg), 5×FAD (YL-IPA08, 1 mg/kg), intragastrically (i.g.) administered, once a day. After continuous administration for 8 weeks, the spatial learning and memory ability of the mice were tested by Morris water maze.\n(2) Morris water maze test: The Morris water maze test was performed after 8 weeks of the administration of YL-IPA08 (0.3, 1 mg/kg). The water maze consisted of a circular stainless steel pool with a diameter of 120 cm and a depth of 60 cm, and the diameter of the escape platform was 10 cm. The day before the test, the mice were allowed to swim in the water maze for 30 s-60 s to acclimate to the environment. During the training, the mice were allowed to swim freely for 60 s to find the platform. If the mice found the hidden platform autonomously, they were allowed to stay there for 30 seconds, and then taken out. If the mice could not find the platform autonomously, they were guided onto the platform and allowed to stay there for 30 seconds, and then taken out. Training was performed twice a day for 5-7 days until the latency of WT mice to find the platform no longer decreased, and the latency, distance and path of the mice to find the hidden platform in the water maze were recorded. The test was performed 24 hours after the last training session, in which the platform was removed, and the mice were allowed to explore freely in the water maze for 1 minute, and the number of times the mice crossed the position of the platform and the time they stayed in the quadrant of the platform were recorded. There were 8-10 mice per group.\nAll data were presented by x±SEM. Data statistics and analysis were performed using GraphPad Prism 6.0. Significant differences were assessed by unpaired Student's t test, one-way ANOVA or two-way ANOVA followed by Tukey's multiple comparison test.", "key": {"[1]": {"conditions": "5×FAD transgenic mice, YL-IPA08 0.3, 1 mg/kg i.g. once a day for 8 weeks, 6 days training, vs solvent control group of 5×FAD mice"}}, "data": [{"smiles": "CCN(Cc1ccccn1)C(=O)Cc1c(-c2ccc(Cl)c(Cl)c2)nc2cc(C)ccn12.Cl", "note": "[YL-IPA08, N-ethyl-N-(2-pyridylmethyl)-2-[2-(3,4-dichlorophenyl)-7-methyl-imidazo[1,2-a]pyridin-3-yl]-acetamide·hydrochloride]", "values": [{"measurement": "learning and cognitive impairment in 5×FAD mice (overall conclusion)", "setting": "5×FAD mice, 0.3, 1 mg/kg i.g. once a day for 8 weeks, Morris water maze", "result": "can improve learning and cognitive impairment"}, {"measurement": "average swimming speed (test period)", "setting": "5×FAD transgenic mice, 0.3, 1 mg/kg i.g. once a day for 8 weeks, comparison of the mice in each group", "result": "not significantly different"}, {"measurement": "number of times the mice crossed the platform (test period)", "setting": "5×FAD transgenic mice, 0.3, 1 mg/kg i.g. once a day for 8 weeks, test 24 hours after last training, platform removed, 1 minute, vs solvent control group", "result": "significantly higher"}, {"measurement": "distance to find the platform (water maze training)", "setting": "[1]", "result": "significantly shortened"}, {"measurement": "latency to find the platform (water maze training)", "setting": "[1]", "result": "significantly shortened"}]}]}
